# Test results as given in the supplement of paper PMC8612539.
# System: Pasteurella multocida
# Assay: minimum inhibitory concentration (MIC)
# Description: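 Broth microdilution MIC (Sensititre BOPO7F bovine plate, CLSI methods) of 19 antimicrobials against field isolates of P. multocida, M. haemolytica, H. somni (deep nasopharyngeal swabs) and E. coli, Enterococcus spp. (rectal swabs) from weaned dairy heifers. Incubation 16-24 h at 35 C. MIC is the lowest concentration preventing visible growth. Values with <= or > lie at the tested range limits. Trimethoprim-sulfamethoxazole is given as the trimethoprim component of a 1:19 mixture.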
compound,measurement,setting,value
COc1cc(Cc2cnc(N)nc2N)cc(OC)c1OC.Cc1cc(NS(=O)(=O)c2ccc(N)cc2)no1 [trimethoprim-sulfamethoxazole],minimum inhibitory concentration,isolate (source animal id): 10,≤ 2 µg/mL
same,minimum inhibitory concentration,isolate (source animal id): 11,≤ 2 µg/mL
same,minimum inhibitory concentration,isolate (source animal id): 12,≤ 2 µg/mL
same,minimum inhibitory concentration,isolate (source animal id): 19,≤ 2 µg/mL
same,minimum inhibitory concentration,isolate (source animal id): 23,≤ 2 µg/mL
same,minimum inhibitory concentration,isolate (source animal id): 26,≤ 2 µg/mL
same,minimum inhibitory concentration,isolate (source animal id): 30,≤ 2 µg/mL
same,minimum inhibitory concentration,isolate (source animal id): 34,≤ 2 µg/mL
same,minimum inhibitory concentration,isolate (source animal id): 36,≤ 2 µg/mL
same,minimum inhibitory concentration,isolate (source animal id): 37,≤ 2 µg/mL
same,minimum inhibitory concentration,isolate (source animal id): 46,≤ 2 µg/mL
same,minimum inhibitory concentration,isolate (source animal id): 48,≤ 2 µg/mL
same,minimum inhibitory concentration,isolate (source animal id): 49,≤ 2 µg/mL
same,minimum inhibitory concentration,isolate (source animal id): 54,≤ 2 µg/mL
same,minimum inhibitory concentration,isolate (source animal id): 55,≤ 2 µg/mL
same,minimum inhibitory concentration,isolate (source animal id): 58,≤ 2 µg/mL
same,minimum inhibitory concentration,isolate (source animal id): 60,≤ 2 µg/mL
same,minimum inhibitory concentration,isolate (source animal id): 61,≤ 2 µg/mL
same,minimum inhibitory concentration,isolate (source animal id): 63,≤ 2 µg/mL
same,minimum inhibitory concentration,isolate (source animal id): 64,≤ 2 µg/mL
same,minimum inhibitory concentration,isolate (source animal id): 65,≤ 2 µg/mL
same,minimum inhibitory concentration,isolate (source animal id): 66,≤ 2 µg/mL
same,minimum inhibitory concentration,isolate (source animal id): 67,≤ 2 µg/mL
same,minimum inhibitory concentration,isolate (source animal id): 69,≤ 2 µg/mL
same,minimum inhibitory concentration,isolate (source animal id): 73,≤ 2 µg/mL
same,minimum inhibitory concentration,isolate (source animal id): 75,≤ 2 µg/mL
same,minimum inhibitory concentration,isolate (source animal id): 76,≤ 2 µg/mL
same,minimum inhibitory concentration,isolate (source animal id): 77,≤ 2 µg/mL
same,minimum inhibitory concentration,isolate (source animal id): 78,≤ 2 µg/mL
same,minimum inhibitory concentration,isolate (source animal id): 80,≤ 2 µg/mL
same,minimum inhibitory concentration,isolate (source animal id): 82,≤ 2 µg/mL
same,minimum inhibitory concentration,isolate (source animal id): 83,≤ 2 µg/mL
same,minimum inhibitory concentration,isolate (source animal id): 88,> 2 µg/mL
same,minimum inhibitory concentration,isolate (source animal id): 92,≤ 2 µg/mL
same,minimum inhibitory concentration,isolate (source animal id): 94,≤ 2 µg/mL
same,minimum inhibitory concentration,isolate (source animal id): 98,≤ 2 µg/mL
same,minimum inhibitory concentration,isolate (source animal id): 104,≤ 2 µg/mL
same,minimum inhibitory concentration,isolate (source animal id): 115,> 2 µg/mL
same,minimum inhibitory concentration,isolate (source animal id): 117,≤ 2 µg/mL
same,minimum inhibitory concentration,isolate (source animal id): 118,≤ 2 µg/mL
same,minimum inhibitory concentration,isolate (source animal id): 121,> 2 µg/mL
same,minimum inhibitory concentration,isolate (source animal id): 124,≤ 2 µg/mL
same,minimum inhibitory concentration,isolate (source animal id): 125,≤ 2 µg/mL
same,minimum inhibitory concentration,isolate (source animal id): 128,> 2 µg/mL
same,minimum inhibitory concentration,isolate (source animal id): 131,≤ 2 µg/mL
same,minimum inhibitory concentration,isolate (source animal id): 135,> 2 µg/mL
same,minimum inhibitory concentration,isolate (source animal id): 136,> 2 µg/mL
same,minimum inhibitory concentration,isolate (source animal id): 140,≤ 2 µg/mL
same,minimum inhibitory concentration,isolate (source animal id): 144,≤ 2 µg/mL
same,minimum inhibitory concentration,isolate (source animal id): 146,≤ 2 µg/mL
same,minimum inhibitory concentration,isolate (source animal id): 150,> 2 µg/mL
same,minimum inhibitory concentration,isolate (source animal id): 151,> 2 µg/mL
same,minimum inhibitory concentration,isolate (source animal id): 153,≤ 2 µg/mL
same,minimum inhibitory concentration,isolate (source animal id): 155,≤ 2 µg/mL
same,minimum inhibitory concentration,isolate (source animal id): 157,≤ 2 µg/mL
same,minimum inhibitory concentration,isolate (source animal id): 160,> 2 µg/mL
same,minimum inhibitory concentration,isolate (source animal id): 164,> 2 µg/mL
same,minimum inhibitory concentration,isolate (source animal id): 165,> 2 µg/mL
same,minimum inhibitory concentration,isolate (source animal id): 167,≤ 2 µg/mL
same,minimum inhibitory concentration,isolate (source animal id): 168,≤ 2 µg/mL
same,minimum inhibitory concentration,isolate (source animal id): 169,≤ 2 µg/mL
same,minimum inhibitory concentration,isolate (source animal id): 170,≤ 2 µg/mL
same,minimum inhibitory concentration,isolate (source animal id): 171,≤ 2 µg/mL
same,minimum inhibitory concentration,isolate (source animal id): 172,≤ 2 µg/mL
same,minimum inhibitory concentration,isolate (source animal id): 173,≤ 2 µg/mL
same,minimum inhibitory concentration,isolate (source animal id): 174,≤ 2 µg/mL
same,minimum inhibitory concentration,isolate (source animal id): 175,≤ 2 µg/mL
same,minimum inhibitory concentration,isolate (source animal id): 176,≤ 2 µg/mL
same,minimum inhibitory concentration,isolate (source animal id): 177,≤ 2 µg/mL
same,minimum inhibitory concentration,isolate (source animal id): 178,≤ 2 µg/mL
same,minimum inhibitory concentration,isolate (source animal id): 179,≤ 2 µg/mL
same,minimum inhibitory concentration,isolate (source animal id): 182,≤ 2 µg/mL
same,minimum inhibitory concentration,isolate (source animal id): 192,≤ 2 µg/mL
same,minimum inhibitory concentration,isolate (source animal id): 193,≤ 2 µg/mL
same,minimum inhibitory concentration,isolate (source animal id): 195,≤ 2 µg/mL
same,minimum inhibitory concentration,isolate (source animal id): 196,≤ 2 µg/mL
same,minimum inhibitory concentration,isolate (source animal id): 197,≤ 2 µg/mL
same,minimum inhibitory concentration,isolate (source animal id): 198,≤ 2 µg/mL
same,minimum inhibitory concentration,isolate (source animal id): 199,≤ 2 µg/mL
same,minimum inhibitory concentration,isolate (source animal id): 200,≤ 2 µg/mL
same,minimum inhibitory concentration,isolate (source animal id): 201,≤ 2 µg/mL
same,minimum inhibitory concentration,isolate (source animal id): 203,≤ 2 µg/mL
same,minimum inhibitory concentration,isolate (source animal id): 204,≤ 2 µg/mL
same,minimum inhibitory concentration,isolate (source animal id): 205,≤ 2 µg/mL
same,minimum inhibitory concentration,isolate (source animal id): 206,≤ 2 µg/mL
same,minimum inhibitory concentration,isolate (source animal id): 207,≤ 2 µg/mL
same,minimum inhibitory concentration,isolate (source animal id): 208,≤ 2 µg/mL
same,minimum inhibitory concentration,isolate (source animal id): 209,≤ 2 µg/mL
same,minimum inhibitory concentration,isolate (source animal id): 210,≤ 2 µg/mL
same,minimum inhibitory concentration,isolate (source animal id): 213,≤ 2 µg/mL
same,minimum inhibitory concentration,isolate (source animal id): 216,≤ 2 µg/mL
same,minimum inhibitory concentration,isolate (source animal id): 223,≤ 2 µg/mL
same,minimum inhibitory concentration,isolate (source animal id): 227,≤ 2 µg/mL
same,minimum inhibitory concentration,isolate (source animal id): 229,≤ 2 µg/mL
same,minimum inhibitory concentration,isolate (source animal id): 233,≤ 2 µg/mL
same,minimum inhibitory concentration,isolate (source animal id): 234,≤ 2 µg/mL
same,minimum inhibitory concentration,isolate (source animal id): 237,≤ 2 µg/mL
same,minimum inhibitory concentration,isolate (source animal id): 241,≤ 2 µg/mL
same,minimum inhibitory concentration,isolate (source animal id): 245,≤ 2 µg/mL
same,minimum inhibitory concentration,isolate (source animal id): 247,≤ 2 µg/mL
same,minimum inhibitory concentration,isolate (source animal id): 250,≤ 2 µg/mL
same,minimum inhibitory concentration,isolate (source animal id): 254,≤ 2 µg/mL
same,minimum inhibitory concentration,isolate (source animal id): 255,≤ 2 µg/mL
same,minimum inhibitory concentration,isolate (source animal id): 258,≤ 2 µg/mL
same,minimum inhibitory concentration,isolate (source animal id): 261,≤ 2 µg/mL
same,minimum inhibitory concentration,isolate (source animal id): 262,≤ 2 µg/mL
same,minimum inhibitory concentration,isolate (source animal id): 269,≤ 2 µg/mL
same,minimum inhibitory concentration,isolate (source animal id): 270,≤ 2 µg/mL
same,minimum inhibitory concentration,isolate (source animal id): 274,≤ 2 µg/mL
same,minimum inhibitory concentration,isolate (source animal id): 275,≤ 2 µg/mL
same,minimum inhibitory concentration,isolate (source animal id): 276,≤ 2 µg/mL
same,minimum inhibitory concentration,isolate (source animal id): 277,≤ 2 µg/mL
same,minimum inhibitory concentration,isolate (source animal id): 278,≤ 2 µg/mL
same,minimum inhibitory concentration,isolate (source animal id): 279,≤ 2 µg/mL
same,minimum inhibitory concentration,isolate (source animal id): 280,> 2 µg/mL
same,minimum inhibitory concentration,isolate (source animal id): 284,≤ 2 µg/mL
same,minimum inhibitory concentration,isolate (source animal id): 285,≤ 2 µg/mL
same,minimum inhibitory concentration,isolate (source animal id): 287,≤ 2 µg/mL
same,minimum inhibitory concentration,isolate (source animal id): 290,≤ 2 µg/mL
same,minimum inhibitory concentration,isolate (source animal id): 294,≤ 2 µg/mL
same,minimum inhibitory concentration,isolate (source animal id): 295,≤ 2 µg/mL
same,minimum inhibitory concentration,isolate (source animal id): 296,≤ 2 µg/mL
same,minimum inhibitory concentration,isolate (source animal id): 307,≤ 2 µg/mL
same,minimum inhibitory concentration,isolate (source animal id): 310,≤ 2 µg/mL
same,minimum inhibitory concentration,isolate (source animal id): 311,≤ 2 µg/mL
same,minimum inhibitory concentration,isolate (source animal id): 312,≤ 2 µg/mL
same,minimum inhibitory concentration,isolate (source animal id): 313,≤ 2 µg/mL
same,minimum inhibitory concentration,isolate (source animal id): 315,≤ 2 µg/mL
same,minimum inhibitory concentration,isolate (source animal id): 316,≤ 2 µg/mL
same,minimum inhibitory concentration,isolate (source animal id): 318,≤ 2 µg/mL
same,minimum inhibitory concentration,isolate (source animal id): 319,≤ 2 µg/mL
same,minimum inhibitory concentration,isolate (source animal id): 320,≤ 2 µg/mL
same,minimum inhibitory concentration,isolate (source animal id): 321,≤ 2 µg/mL
same,minimum inhibitory concentration,isolate (source animal id): 322,≤ 2 µg/mL
same,minimum inhibitory concentration,isolate (source animal id): 324,≤ 2 µg/mL
same,minimum inhibitory concentration,isolate (source animal id): 325,≤ 2 µg/mL
same,minimum inhibitory concentration,isolate (source animal id): 328,≤ 2 µg/mL
same,minimum inhibitory concentration,isolate (source animal id): 330,≤ 2 µg/mL
same,minimum inhibitory concentration,isolate (source animal id): 331,≤ 2 µg/mL
same,minimum inhibitory concentration,isolate (source animal id): 333,≤ 2 µg/mL
same,minimum inhibitory concentration,isolate (source animal id): 336,≤ 2 µg/mL
same,minimum inhibitory concentration,isolate (source animal id): 337,≤ 2 µg/mL
same,minimum inhibitory concentration,isolate (source animal id): 339,≤ 2 µg/mL
same,minimum inhibitory concentration,isolate (source animal id): 340,≤ 2 µg/mL
same,minimum inhibitory concentration,isolate (source animal id): 341,≤ 2 µg/mL
